The record followed here is US8367838B2, “Amines or amino alcohols as GLYT1 inhibitors” (Hoffmann-La Roche Inc., priority 2009, dated 2013).

Structures can show the parent of a compound that is named as a salt.

In general, IC50 refers to the concentration at which inhibition is half-maximal.

This test concerns the target T1, mGlyT-1b (Mus musculus, UniProt P28571).
T1 construct: host or cells: Flp-in-CHO
T1 sequence (P28571 1-651 isoform P28571-2): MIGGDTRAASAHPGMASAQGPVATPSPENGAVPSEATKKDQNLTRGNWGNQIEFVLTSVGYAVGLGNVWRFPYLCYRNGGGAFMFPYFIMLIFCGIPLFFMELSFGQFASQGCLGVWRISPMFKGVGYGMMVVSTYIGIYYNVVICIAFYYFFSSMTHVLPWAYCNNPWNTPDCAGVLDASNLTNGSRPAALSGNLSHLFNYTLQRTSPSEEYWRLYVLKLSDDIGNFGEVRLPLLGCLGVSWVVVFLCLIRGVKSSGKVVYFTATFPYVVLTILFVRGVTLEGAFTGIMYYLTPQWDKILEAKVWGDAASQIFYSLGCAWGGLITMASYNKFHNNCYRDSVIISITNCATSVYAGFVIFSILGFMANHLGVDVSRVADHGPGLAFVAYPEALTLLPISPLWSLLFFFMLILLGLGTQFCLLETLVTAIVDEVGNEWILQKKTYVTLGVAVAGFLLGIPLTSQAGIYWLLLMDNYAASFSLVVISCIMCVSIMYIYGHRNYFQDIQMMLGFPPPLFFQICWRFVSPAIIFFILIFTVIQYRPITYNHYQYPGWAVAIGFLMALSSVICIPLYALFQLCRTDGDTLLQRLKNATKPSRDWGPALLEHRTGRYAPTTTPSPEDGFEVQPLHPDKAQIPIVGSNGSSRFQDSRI
Description: Glycine uptake inhibition assay (mGlyT-1b), [3H]-glycine uptake in transfected Flp-in-CHO cells. It is filed as cell-based. As to conditions: Flp-in-CHO cells transfected with mGlyT-1b cDNA; [3H]-glycine 60 nM and 25 μM non-radioactive glycine; 20 min preincubation at 22° C.; read-out: IC50 (μM) at GlyT-1; Ic50 (hglyt1b). A digest of the protocol:
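Flp-in CHO cells stably expressing mouse GlyT-1b were preincubated 20 min at 22 °C with inhibitor in pH 7.4 Hepes-Tris buffer. Uptake was then run with 60 nM [3H]-glycine plus 25 μM unlabeled glycine, with 10 mM glycine defining nonspecific uptake. Cell radioactivity was counted by scintillation to derive IC50.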
Turning to `CS(=O)(=O)c1cncc(-c2ccc([C@@H](O)[C@@H](N)c3ccc(Cl)c(Cl)c3)cc2)c1` (racemic) [Example 82, rac-erythro-2-Amino-2-(3,4-dichloro-phenyl)-1-[4-(5-methanesulfonyl-pyridin-3-yl)-phenyl]-ethanol], the IC50 is 0.047 µM.

Turning to `N[C@@H](c1ccc(Cl)c(Cl)c1)[C@H](O)c1ccc(-c2cncc(F)c2)cc1` (racemic) [Example 83, rac-erythro-2-Amino-2-(3,4-dichloro-phenyl)-1-[4-(5-fluoro-pyridin-3-yl)-phenyl]-ethanol], the IC50 is 0.059 µM. For `N[C@@H](c1ccc(Cl)c(F)c1)[C@H](O)c1ccc(-c2cccnc2)cc1` (racemic) [Example 84] the value was 0.033 µM; for `N[C@@H](c1ccc(Cl)c(F)c1)[C@H](O)c1ccc(-c2cncc(F)c2)cc1` (racemic) [Example 85, rac-erythro-2-Amino-2-(4-chloro-3-fluoro-phenyl)-1-[4-(5-fluoro-pyridin-3-yl)-phenyl]-ethanol], 0.095 µM. Consider `Cc1cc([C@H](N)[C@H](O)c2ccc(-c3cccnc3)cc2)ccc1Cl` (racemic) [Example 86, rac-erythro-2-Amino-2-(4-chloro-3-methyl-phenyl)-1-(4-pyridin-3-yl-phenyl)-ethanol], for which the IC50 was 0.049 µM. In the case of `N[C@@H](c1ccc(C(F)(F)F)cc1)[C@H](O)c1ccc(-c2cccnc2)cc1` (racemic) [Example 88, rac-erythro-2-Amino-1-(4-pyridin-3-yl-phenyl)-2-(4-trifluoromethyl-phenyl)-ethanol], the IC50 was 0.255 µM. Turning to `CN(C)c1cccc(-c2ccc([C@@H](O)[C@@H](N)c3ccc(Cl)c(Cl)c3)cc2)c1` (racemic) [Example 89, rac-erythro-2-Amino-2-(3,4-dichloro-phenyl)-1-(3′-dimethylamino-biphenyl-4-yl)-ethanol], the IC50 amounted to 0.305 µM. For `Cc1ccc([C@H](N)[C@H](O)c2ccc(-c3cccnc3)cc2)cc1F` (racemic) [Example 91, rac-erythro-2-Amino-2-(3-fluoro-4-methyl-phenyl)-1-(4-pyridin-3-yl-phenyl)-ethanol], the IC50 worked out at 0.073 µM. Regarding `Cc1ccc([C@H](N)[C@H](O)c2ccc(-c3cccnc3)cc2)cc1Cl` (racemic) [Example 92, rac-erythro-2-Amino-2-(3-chloro-4-methyl-phenyl)-1-(4-pyridin-3-yl-phenyl)-ethanol], the IC50 amounted to 0.084 µM. With `Cc1ccc([C@H](N)[C@H](O)c2ccc(-c3cncc(F)c3)cc2)cc1Cl` (racemic) [Example 93, rac-erythro-2-Amino-2-(3-chloro-4-methyl-phenyl)-1-[4-(5-fluoro-pyridin-3-yl)-phenyl]-ethanol], the IC50 came out at 0.094 µM. In the case of `Cc1ccc([C@H](N)[C@H](O)c2ccc(-c3cncc(F)c3)cc2)cc1F` (racemic) [Example 94, rac-erythro-2-Amino-2-(3-fluoro-4-methyl-phenyl)-1-[4-(5-fluoro-pyridin-3-yl)-phenyl]-ethanol], the IC50 amounted to 0.104 µM. In the case of `N[C@@H](c1ccc(C(F)(F)F)c(F)c1)[C@H](O)c1ccc(-c2cccnc2)cc1` (racemic) [Example 95, rac-erythro-2-Amino-2-(3-fluoro-4-trifluoromethyl-phenyl)-1-(4-pyridin-3-yl-phenyl)-ethanol], the IC50 was 0.158 µM.

As for `N[C@@H](c1ccc(C(F)(F)F)c(F)c1)[C@H](O)c1ccc(-c2cncc(F)c2)cc1` (racemic) [Example 96, rac-erythro-2-Amino-1-[4-(5-fluoro-pyridin-3-yl)-phenyl]-2-(3-fluoro-4-trifluoromethyl-phenyl)-ethanol], the IC50 was 0.733 µM. The result for `N[C@@H](c1ccc(Cl)cc1F)[C@H](O)c1ccc(-c2cccnc2)cc1` (racemic) [Example 97, rac-erythro-2-Amino-2-(4-chloro-2-fluoro-phenyl)-1-(4-pyridin-3-yl-phenyl)-ethanol] reads 0.267 µM. The result for `CO[C@H](c1ccc(-c2cccnc2)cc1)[C@@H](N)c1ccc(Cl)c(Cl)c1` (racemic) [Example 98, rac-erythro-1-(3,4-Dichloro-phenyl)-2-methoxy-2-(4-pyridin-3-yl-phenyl)-ethylamine dihydrochloride] reads 0.388 µM; that for `CCO[C@H](c1ccc(-c2cncc(F)c2)cc1)[C@@H](N)c1ccc(Cl)c(Cl)c1` (racemic) [Example 99, rac-erythro-[1-(3,4-Dichloro-phenyl)-2-ethoxy-2-[4-(5-fluoro-pyridin-3-yl)-phenyl]-ethylamine trifluoroacetate], 0.285 µM.

As for `N[C@@H](c1ccc(Cl)c(Cl)c1)[C@H](O)c1ccc(Oc2ccccc2)cc1` (racemic) [Example 100, rac-erythro-2-Amino-2-(3,4-dichloro-phenyl)-1-(4-phenoxy-phenyl)-ethanol], the IC50 worked out at 0.323 µM.

For the compound `N[C@@H](c1ccc(Cl)cc1)[C@H](O)c1ccc(OCC(F)(F)C(F)(F)F)cc1F` (racemic) [Example 101, rac-erythro-2-Amino-2-(4-chloro-phenyl)-1-[2-fluoro-4-(2,2,3,3,3-pentafluoro-propoxy)-phenyl]-ethanol], the IC50 was 0.334 µM. For `CC(Oc1ccc([C@@H](O)[C@@H](N)c2ccc(Cl)cc2)cc1)C(F)(F)F` (mixture of isomers) [Example 102, rac-erythro-2-Amino-2-(4-chloro-phenyl)-1-[4-(2,2,2-trifluoro-1-methyl-ethoxy)-phenyl]-ethanol], the IC50 came to 0.384 µM. For the compound `N[C@@H](c1ccc(Cl)c(Cl)c1)[C@H](O)c1ccc(-c2cccc([N+](=O)[O-])c2)cc1` (racemic) [Example 103, rac-erythro-2-Amino-2-(3,4-dichloro-phenyl)-1-(3′-nitro-biphenyl-4-yl)-ethanol], the IC50 is 0.412 µM. As for `NC(=O)c1cccc(-c2ccc([C@@H](O)[C@@H](N)c3ccc(Cl)c(Cl)c3)cc2)c1` (racemic) [Example 104, rac-erythro-4′-[2-Amino-2-(3,4-dichloro-phenyl)-1-hydroxy-ethyl]-biphenyl-3-carboxylic acid amide], the IC50 was determined as 0.056 µM.

With `CC(C)Oc1ccc(F)c(-c2ccc([C@@H](O)[C@@H](N)c3ccc(Cl)c(Cl)c3)cc2)c1` (racemic) [Example 105, rac-erythro-2-Amino-2-(3,4-dichloro-phenyl)-1-(2′-fluoro-5′-isopropoxy-biphenyl-4-yl)-ethanol], the IC50 came to 0.567 µM.

In the case of `CC(C)Oc1cccc(-c2ccc([C@@H](O)[C@@H](N)c3ccc(Cl)c(Cl)c3)cc2)c1` (racemic) [Example 106, rac-erythro-2-Amino-2-(3,4-dichloro-phenyl)-1-(3′-isopropoxy-biphenyl-4-yl)-ethanol], the IC50 turned out to be 0.851 µM. For `CS(=O)(=O)c1cccc(-c2ccc([C@@H](O)[C@@H](N)c3ccc(Cl)c(Cl)c3)c(F)c2)c1` (single isomer, unassigned) [Example 6, (1R,2S or 1S,2R)-2-Amino-2-(3,4-dichloro-phenyl)-1-(3-fluoro-3′-methanesulfonyl-biphenyl-4-yl)-ethanol hydrochloride] the value was 0.012 µM. In the case of `N[C@@H](c1ccc(Cl)c(Cl)c1)[C@H](O)c1ccc(-c2cncc(F)c2)cc1` (single isomer, unassigned) [Example 8, (1R,2S or 1S,2R)-2-Amino-2-(3,4-dichloro-phenyl)-1-[4-(5-fluoro-pyridin-3-yl)-phenyl]-ethanol trifluoroacetate], the IC50 was 0.059 µM. Regarding `N[C@@H](c1ccc(Cl)c(Cl)c1)[C@H](O)c1ccc(OC2CCOCC2)cc1` (single isomer, unassigned) [Example 41, (1R,2S or 1S,2R)-[2-Amino-2-(3,4-dichloro-phenyl)-1-[4-(tetrahydro-pyran-4-yloxy)-phenyl]-ethanol], the IC50 came out at 0.021 µM.
